{
  "source": "paper PMC12654037",
  "about": "“Norditerpene Natural Products from Subterranean Fungi with Anti-Parasitic Activity” (Microorganisms, 2025)",
  "key": {"HCT-8 cytotoxicity assay": {"assay": "HCT-8 cytotoxicity assay", "assay_type": "cell-based", "details": "human; sub-confluent (~40% confluency); read-out: EC50 cytotoxicity against sub-confluent HCT-8 cells", "method": "(§1) HCT-8 and HFF cytotoxicity assays: Cytotoxicity of the compounds was determined against both confluent (the conditions of the infection assays) and growing HCT-8 and HFF host cells, as previously described. Cells were seeded into white-sided, clear-bottom 96-well plates and grown to either 40% or 100% confluency. Compounds were added to cells at various concentrations up to 100 µM in a final DMSO concentration of 0.5%. DMSO was run in parallel as a vehicle control. After 48 h, the viability of the cells was determined by either quantification of cellular ATP (Cell-Titer Glo cell viability assay; Promega, Madison WI, USA) or by MTT assay. Viability was determined 24 h after compound addition to HFF cells or 48 h after compound addition to HCT-8 cells or HepG2 cells. The percent cell growth was then calculated with the following formula: % Cell Growth = [RLUcompound/RLUDMSO] × 100. Samples were run in triplicate with two to three biological replicates."}, "HCT-8 cells": {"system": "HCT-8 cells", "assay": "HCT-8 cytotoxicity assay", "assay_type": "cell-based", "method": "as §1"}, "C. parvum": {"system": "C. parvum", "assay": "C. parvum growth inhibition assay (Cp-NLuc-infected HCT-8 cells)", "assay_type": "cell-based, Cryptosporidium parvum", "details": "for EC50: Cryptosporidium parvum", "method": "C. parvum growth inhibition assays: The in vitro growth inhibition assay of C. parvum has been previously described. Briefly, clear-bottom, white-sided 96 well plates were seeded with HCT-8 cells. Once the cells reached between 50% and 75% confluency, they were infected with Cp-NLuc oocysts (10,000/well) in complete media containing 0.6% taurocholate. At 24 h post-infection (hpi), the infected cells were treated with compounds at various concentrations. DMSO was used as a vehicle control in parallel. Parasite growth was determined at 72 hpi by measuring relative luminescence units (RLUs) using Promega Nano-Glo substrate (Promega, Madison, WI, USA) and a SpectraMax® L Microplate Reader (Molecular Devices, San Jose, CA, USA). The percent inhibition of parasite growth was calculated as [(RLUDMSO − RLUcompound)/RLUDMSO] × 100."}, "[1]": {"system": "G. lamblia WBC6 and CBG99 trophozoites", "assay": "Giardia lamblia trophozoite growth inhibition assay", "assay_type": "cell-based", "details": "72 h", "method": "Compound inhibition assay against Giardia lamblia WBC6 and CBG99 trophozoites: Biological replicates of growth inhibition assays were performed using wild-type G. lamblia WBC6 and G. lamblia CBG99 trophozoites at 37 °C under reduced oxygen conditions in a sealed 0.5 mL airtight sterile tube (USA Scientific, Ocala, FL, USA), following the susceptibility assay described below. G. lamblia trophozoites were grown in TYI-S-33 medium supplemented with 10% bovine serum and 0.05 mg/mL bovine bile, as previously described. A 3-fold serial concentration of pure compounds starting at 29 µM was screened against 75,000 cells/mL of parasites in modified TYI-S-33 medium with a final dimethyl sulfoxide (DMSO) concentration of 0.14%. Metronidazole was run in parallel at a final highest concentration of 66.7 µM and 3-fold subsequent serial dilutions. The untreated negative control contained 0.14% of DMSO. Sealable test tubes filled to its maximum volume of 700 µL were used to perform this assay. The test tubes were incubated at 37 °C for 72 h. After incubation, the tubes were chilled on ice, and the reaction was transferred to 96-well plates. In the plate, 50 µL of an ATP binding luminescence marker, CellTiter-Glo (Promega, Madison, WI, USA) or 10 µL of 2.5 mg/mL d-luciferin (GoldBio, St Louis, MO, USA) was added to each well and allowed to develop at room temperature for 10 min [31, 36]. The assay was read and analyzed using an EnVision Plate Reader (Perkin Elmer, Waltham, MA, USA). Response curves and EC50 values (the concentration at which 50% of G. lamblia trophozoite growth was inhibited) were calculated using GraphPad Prism (GraphPad, LaJolla, CA, USA)."}, "HuF fibroblast cell line": {"system": "HuF fibroblast cell line", "details": "cited from earlier work"}, "P. falciparum line Dd2": {"system": "P. falciparum line Dd2", "assay": "Plasmodium falciparum growth inhibition assay (SYBR Green I), Dd2", "protocol": "(§2) Plasmodium falciparum growth inhibition assay: Antiplasmodial EC50 results were determined using a fluorescence-based SYBR Green I assay performed using asynchronous cultures [30, 35]. […] Plates were subsequently frozen at −80 °C to facilitate lysis. […] Relative fluorescence units (RFUs) were normalized based on chloroquine-treated and no treatment controls. Serial dilutions of compounds were prepared in RPMI with final assay conditions of ≤0.2% DMSO. Each assay was conducted in triplicate with three biological replicates."}, "T. gondii": {"system": "T. gondii", "assay": "T. gondii growth inhibition assay (TgRH-Luc:GFP-infected HFF cells)", "assay_type": "cell-based", "details": "Toxoplasma gondii, 10 µM to 156 nM, Figure 2E", "method": "T. gondii growth inhibition assays: The T. gondii inhibition assay was described previously. Briefly, HFF cells were seeded onto white-sided, clear-bottom 96 well plates, grown to confluence, and then 5000 TgRH-Luc:GFP parasites were added to each well. At 24 hpi, compounds or DMSO were added. The growth of the parasites was determined by relative luminescence at 48 hpi using Promega Bright-Glo (Promega, Madison, WI, USA) substrate. Plates were read, and the percent inhibition of parasite growth was calculated as described above. Determination of -static versus -cidal activity was conducted as indicated above, with parasite growth quantified after 48 h of infection. Each sample was run in triplicate, and each experiment was repeated three times."}, "HFF cells": {"system": "HFF cells", "assay": "HFF cytotoxicity assay", "assay_type": "cell-based", "method": "as §1"}, "P. falciparum 3D7": {"system": "P. falciparum 3D7", "assay": "Plasmodium falciparum growth inhibition assay (SYBR Green I), 3D7", "details": "3D7, 72 h, read-out: EC50 3D7(M)", "protocol": "as §2"}, "HepG2 human hepatocytes": {"system": "HepG2 human hepatocytes", "assay": "HepG2 cytotoxicity assay (MTS)", "assay_type": "cell-based", "details": "48 h, mean +/- SD", "method": "HepG2 cytotoxicity assay: Mammalian cell cytotoxicity was assessed in HepG2 human hepatocytes using an MTS 3-(4,5-dimethylthiazol-2-yl)-5-(3-carboxymethoxyphenyl)-2-(4-sulfophenyl)-2H-tetrazolium)-based cytotoxicity assay. For cytotoxicity testing, ∼2250 cells were seeded into each well of a 384-well microtiter plate and incubated for 24 h. Serial dilutions of the compounds were added in triplicate starting at 25 μM. Cells were further incubated for an additional 48 h at 37 °C in an atmosphere containing 5% CO2. Zero-growth control wells were incubated with 5% Triton X-100 for 5 min prior to MTS addition. Following the addition of MTS to all wells, the plates were incubated for an additional 4 h under the same environmental conditions before taking absorbance measurements. Absorbance values were recorded at 490 nm using a Synergy Neo2 multimode reader (BioTek), and values were normalized based on Triton X-100-lysed and no treatment controls. Samples were run in triplicate in each assay, and the experiments were repeated three times."}},
  "note": "Where two headings read alike, the source gives them in different places.",
  "data": [
    {"compound": "CO[C@H]1OC(=O)C=C2C1=C[C@H]1OC(=O)[C@@]3(C)CCC[C@@]2(C)[C@@H]13", "note": "[compound 7, oidiolactone B]", "values": [
      {"measurement": "EC50 at 48 h", "setting": "HCT-8 cytotoxicity assay", "value": 2100, "unit": "nM"},
      {"measurement": "TC50 HCT-8 (confluent)", "setting": "HCT-8 cells; confluent", "value": "> 30000", "unit": "nM"},
      {"measurement": "toxicity to host cells (no toxicity up to)", "setting": "HCT-8 cells; confluent HCT-8, conditions of the infection assay, 48 h, cellular ATP", "value": "> 100", "unit": "µM"},
      {"measurement": "more cytotoxic towards host HCT-8 cells versus oidiolactone A", "setting": "HCT-8 cells; non-confluent conditions", "value": "~ 15 x"},
      {"measurement": "TC50 HCT-8 (sub-confluent)", "setting": "HCT-8 cells; sub-confluent", "value": "2100 ± 300", "unit": "nM"},
      {"measurement": "increase in inhibitory activity against C. parvum versus oidiolactone A", "setting": "C. parvum; 7,8 double bond vs. 7α,8α-epoxy group", "value": 2, "unit": "fold"},
      {"measurement": "EC50", "setting": "C. parvum; HCT-8, abstract, read-out: EC50 against C. parvum", "value": 240, "unit": "nM"},
      {"measurement": "EC50", "setting": "C. parvum; Cp-NLuc-infected HCT-8 cells, 7.5 µM to 117 nM, Figure 2E, read-out: C. parvum EC50", "value": 238, "unit": "nM"},
      {"measurement": "activity against G. lamblia (no activity up to)", "setting": "[1]", "value": "> 29", "unit": "µM"},
      {"measurement": "cytotoxicity against human fibroblast", "setting": "HuF fibroblast cell line", "value": "no cytotoxicity observed"},
      {"measurement": "TC50 HuF (sub-confluent)", "setting": "HuF fibroblast cell line; sub-confluent, ref Rusman et al. 2020 [25]", "value": "21400 ± 900", "unit": "nM"},
      {"measurement": "SI: selectivity index=EC50 HepG2/ EC50 compound", "setting": "P. falciparum line Dd2", "value": 11},
      {"measurement": "EC50", "setting": "P. falciparum line Dd2; Plasmodium falciparum, DD2, 72 h, read-out: EC50 Dd2 (M)", "value": "9.83e-07 ± 1.11e-07", "unit": "M"},
      {"measurement": "EC50", "setting": "T. gondii", "value": 580, "unit": "nM"},
      {"measurement": "TC50 HFF (confluent)", "setting": "HFF cells; confluent", "value": "> 30000", "unit": "nM"},
      {"measurement": "toxicity to host cells (no toxicity up to)", "setting": "HFF cells; confluent HFF, conditions of the infection assay, 24 h, cellular ATP", "value": "> 100", "unit": "µM"},
      {"measurement": "cytotoxicity against sub-confluent HFF", "setting": "HFF cells; sub-confluent", "value": "no cytotoxicity observed"},
      {"measurement": "EC50", "setting": "P. falciparum 3D7", "value": "1.22e-06 ± 4.19e-07", "unit": "M"},
      {"measurement": "TC50 HepG2", "setting": "HepG2 human hepatocytes", "value": "10300 ± 2180", "unit": "nM"}
    ]}
  ]
}
